For experiment [1], the system named is IL-23-stimulated phosphorylated STAT3 in peripheral blood mononuclear cells (PBMCs). The experiment can be described thus: PBMC pSTAT3 Assay. The conditions noted are these: PBMCs from healthy donors; 30 min preincubation with peptide; IL-23 5 ng/mL for 30 min; phospho-STAT3 by MSD. The experiment is classed as cell-based. Summed up:
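Phospho-STAT3 quantified by Meso Scale assay in lysates of PBMCs exposed to IL-23 (5 ng/mL, 30 min, 37 °C) after 30 min peptide pretreatment. Cells were cryopreserved donor PBMCs activated 4 days with anti-CD3 plus IL-1β (100 ng/mL) and starved ~4 h; IC50 reported.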

Experiment [2] has as its target T1, IL-23R (Homo sapiens, UniProt Q5VWK5).
T1 construct: HEK293 cells containing IL-23R, IL-12Rβ1 and a firefly luciferase reporter gene driven by a STAT-inducible promoter (Promega); host or cells: HEK293
T1 sequence (Q5VWK5 24-629): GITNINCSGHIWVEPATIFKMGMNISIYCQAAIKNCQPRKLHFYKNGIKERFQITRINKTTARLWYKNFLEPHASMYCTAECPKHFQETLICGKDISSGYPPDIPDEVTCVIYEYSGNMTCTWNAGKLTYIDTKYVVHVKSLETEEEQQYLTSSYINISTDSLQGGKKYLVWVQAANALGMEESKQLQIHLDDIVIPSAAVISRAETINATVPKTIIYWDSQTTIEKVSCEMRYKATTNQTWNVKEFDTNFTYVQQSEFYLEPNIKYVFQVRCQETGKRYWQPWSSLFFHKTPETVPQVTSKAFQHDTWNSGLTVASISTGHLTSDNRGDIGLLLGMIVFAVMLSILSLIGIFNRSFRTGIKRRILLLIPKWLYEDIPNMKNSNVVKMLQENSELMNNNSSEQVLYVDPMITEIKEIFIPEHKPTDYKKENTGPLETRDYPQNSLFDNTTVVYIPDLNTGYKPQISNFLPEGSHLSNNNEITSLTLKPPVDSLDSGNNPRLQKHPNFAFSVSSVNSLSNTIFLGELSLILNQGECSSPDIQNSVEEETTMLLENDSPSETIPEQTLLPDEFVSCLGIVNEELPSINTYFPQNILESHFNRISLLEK
As to the kind of experiment: IL23R Reporter Assay. The conditions noted are these: HEK293 cells containing IL-23R, IL-12Rβ1 and STAT-inducible firefly luciferase reporter; 10 ng/mL IL-23 (EC90); 5 h. The experiment is classed as cell-based. The essentials:
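IC50 values were fitted with a 4-parameter Hill equation to luciferase signal, scaled between IL-23-only wells (0% inhibition) and 30 μM reference inhibitor (100%). The readout was a STAT-inducible reporter in IL-23R/IL-12Rβ1 HEK293 cells, stimulated with added 10 ng/mL IL-23 (EC90) for 5 h at 37° C and developed with BioGlo.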
In general terms: A reporter such as luciferase makes a cellular process visible.

*1 amine or outer side, *2 acyl side, *3 side chain or, on linkers, in order; H or OH if unused. Where a SMILES comes first, the peptide text is derived from it. Bridges are numbered along the chain shown (N, C = ends). Side-chain parts run from the residue outwards. [ ]: non-standard residue; d: D form. The star is where a group is joined. ξ: configuration not given here. X16 = CC(C)(S[*:2])[C@H](CC(=O)CCOCCOCC[N+](C)(C)C)C(=O)[*:1]; Me3N+(CH2)2O(CH2)2O(CH2)2CO = C[N+](C)(C)CCOCCOCCC(=O)*; PEG12 = NCCOCCOCCOCCOCCOCCOCCOCCOCCOCCOCCOCCOCCC(=O)O; CH2CH2OCH2CH2OCH2CH2NMe3+ = C[N+](C)(C)CCOCCOCC*; Trp(7-Me) = Cc1cccc2c(C[C@H](N)C(=O)O)c[nH]c12; C20 diacid = O=C(O)CCCCCCCCCCCCCCCCCCC(=O)*; C18 diacid = O=C(O)CCCCCCCCCCCCCCCCC(=O)*; γGlu = O=C(O)[C@H](CCC(=O)[*:2])N[*:1]; 2Nal = N[C@@H](Cc1ccc2ccccc2c1)C(=O)O; AEF = NCCOc1ccc(C[C@H](N)C(=O)O)cc1; PEG6 = NCCOCCOCCOCCOCCOCCOCCC(=O)O; X2 = C[N+](C)(C)C[C@@H](CC(=O)O)N*; 3Pal = N[C@@H](Cc1cccnc1)C(=O)O; Lys(Me) = CNCCCC[C@H](N)C(=O)O; NMeK = CN[C@@H](CCCCN)C(=O)O; Pen = CC(C)(S)[C@H](N)C(=O)O; Suc = O=C(CCC(=O)[*:2])[*:1]; Thp = NC1(C(=O)O)CCOCC1; X1 = C[N+](C)(C)CCCCC*; ξN = NC(=O)CC(N)C(=O)O; AEEA = NCCOCCOCC(=O)O; Sar = CNCC(=O)O

In the case of `CC(=O)N(C)CCCC[C@@H]1NC(=O)[C@H](Cc2c[nH]c3c(C)cccc23)NC(=O)[C@H]([C@@H](C)O)NC(=O)[C@H](CC(=O)N(C)C)NC(=O)[C@@H](CC(=O)CCOCCOCC[N+](C)(C)C)C(C)(C)SSC(C)(C)[C@@H](C(=O)N[C@@H](Cc2ccc(OCCOCCOCC[N+](C)(C)C)cc2)C(=O)N[C@@H](Cc2ccc3ccccc3c2)C(=O)NC2(C(=O)N[C@@H](CCCCN(C)C(C)=O)C(=O)NC(CC(N)=O)C(=O)N[C@@H](Cc3cccnc3)C(=O)N(C)[C@@H](CCCCNC(=O)COCCOCCNC(=O)COCCOCCNC(=O)CC[C@H](NC(=O)CCCCCCCCCCCCCCCCCCC(=O)O)C(=O)O)C(N)=O)CCOCC2)NC1=O` (stereo partly shown) [compound 112, cPEG3aCO-Pen(3)-N(N(Me)2)-T-7MeW-K(NMeAc)-Pen(3)-APEG3F-2Nal-THP-K(NMeAc)-N-3Pya-NMeK(PEG2PEG2gEC20OH)-CONH2] (D(NMe2)T[Trp(7-Me)][Lys(Me)](Ac)[Pen]Y(CH2CH2OCH2CH2OCH2CH2NMe3+)[2Nal][Thp][Lys(Me)](Ac)[ξN][3Pal][NMeK]([AEEA-AEEA-γGlu-C20 diacid])-NH2; linker N-5 via X16), the concentration for half-maximal inhibition (IC50) (usually the concentration that inhibits the measured activity by half) lay within 0.0005 to 0.005 µM in experiment [1] and 0.05 to 0.5 µM in experiment [2].

As for `CC(=O)N[C@@H]1C(=O)N[C@@H](CC(N)=O)C(=O)N[C@@H]([C@@H](C)O)C(=O)N[C@@H](Cc2c[nH]c3ccccc23)C(=O)N[C@@H](CCCCNC(=O)CCOCCOCCOCCOCCOCCOCCOCCOCCOCCOCCOCCOCCNC(=O)CC[C@H](NC(=O)CCCCCCCCCCCCCCCCC(=O)O)C(=O)O)C(=O)N[C@H](C(=O)N[C@@H](Cc2ccc(OCCN)cc2)C(=O)N[C@@H](Cc2ccc3ccccc3c2)C(=O)NC2(C(=O)N[C@@H](CCC(=O)O)C(=O)N[C@@H](CC(N)=O)C(=O)N[C@@H](Cc3cccnc3)C(=O)N(C)CC(N)=O)CCOCC2)C(C)(C)SSC1(C)C` [compound 96, MeCO-Pen(3)-N-T-7MeW-K(PEG12gEC18OH)-Pen(3)-AEF-2Nal-THP-E-N-3Pya-Sar-CONH2], the IC50 in experiment [1] is below 0.0005 µM; in experiment [2], below 0.05 µM.

Regarding `CC(=O)N(C)CCCC[C@@H]1NC(=O)[C@H](Cc2c[nH]c3c(C)cccc23)NC(=O)[C@H]([C@@H](C)O)NC(=O)[C@H](CC(=O)N(C)C)NC(=O)[C@@H](NC(=O)CCOCCOCC[N+](C)(C)C)C(C)(C)SSC(C)(C)[C@@H](C(=O)N[C@@H](Cc2ccc(OCCCCC[N+](C)(C)C)cc2)C(=O)N[C@@H](Cc2ccc3ccccc3c2)C(=O)NC2(C(=O)N[C@@H](CCCCNC(=O)COCCOCCNC(=O)COCCOCCNC(=O)CC[C@H](NC(=O)CCCCCCCCCCCCCCCCC(=O)O)C(=O)O)C(=O)N[C@@H](CC(N)=O)C(=O)N[C@@H](Cc3ccccc3)C(=O)N(C)CC(=O)N(C)C)CCOCC2)NC1=O` [compound 120, cPEG3aCO-Pen(3)-N(N(Me)2)-T-7MeW-K(NMeAc)-Pen(3)-TMAPF-2Nal-THP-K(PEG2PEG2gEC18OH)-N-3Pya-Sar-CON(Me)2] ({Me3N+(CH2)2O(CH2)2O(CH2)2CO}-[Pen]D(NMe2)T[Trp(7-Me)][Lys(Me)](Ac)[Pen]Y(X1)[2Nal][Thp]K([AEEA-AEEA-γGlu-C18 diacid])NF[Sar]-NMe2; disulfide 1-6), the IC50 in experiment [1] was below 0.0005 µM; in experiment [2], below 0.05 µM.

Consider `CC(=O)NCCCC[C@@H]1NC(=O)[C@H](Cc2c[nH]c3c(C)cccc23)NC(=O)[C@H]([C@@H](C)O)NC(=O)[C@H](CC(N)=O)NC(=O)[C@@H](NC(C)=O)C(C)(C)SSC(C)(C)[C@@H](C(=O)N[C@@H](Cc2ccc(OCCN)cc2)C(=O)N[C@@H](Cc2ccc3ccccc3c2)C(=O)NC2(C(=O)N[C@@H](CCCCNC(C)=O)C(=O)N[C@@H](CC(N)=O)C(=O)N[C@@H](Cc3cccnc3)C(=O)N(C)CC(=O)N[C@@H](CCCCNC(=O)CCOCCOCCOCCOCCOCCOCCOCCOCCOCCOCCOCCOCCNC(=O)CC[C@H](NC(=O)CCCCCCCCCCCCCCCCC(=O)O)C(=O)O)C(N)=O)CCOCC2)NC1=O` [compound 102, MeCO-Pen(3)-N-T-7MeW-K(Ac)-Pen(3)-AEF-2Nal-THP-K(Ac)-N-3Pya-Sar-K(PEG12gEC18OH)-CONH2], for which the values for the IC50 in experiment [1] and in experiment [2] were below 0.0005 µM and below 0.05 µM, respectively.

Regarding `CC(=O)NCCCC[C@@H]1NC(=O)[C@H](Cc2c[nH]c3c(C)cccc23)NC(=O)[C@H]([C@@H](C)O)NC(=O)[C@H](CC(N)=O)NC(=O)[C@@H](NC(=O)[C@@H](CCCCNC(=O)CCOCCOCCOCCOCCOCCOCCOCCOCCOCCOCCOCCOCCNC(=O)CC[C@H](NC(=O)CCCCCCCCCCCCCCCCC(=O)O)C(=O)O)NC(C)=O)C(C)(C)SSC(C)(C)[C@@H](C(=O)N[C@@H](Cc2ccc(OCCN)cc2)C(=O)N[C@@H](Cc2ccc3ccccc3c2)C(=O)NC2(C(=O)N[C@@H](CCC(=O)O)C(=O)N[C@@H](CC(N)=O)C(=O)N[C@@H](Cc3cccnc3)C(=O)N(C)CC(N)=O)CCOCC2)NC1=O` [compound 117, MeCO-k(PEG12gEC18OH)-Pen(3)-N-T-7MeW-K(Ac)-Pen(3)-AEF-2Nal-THP-E-N-3Pya-Sar-CONH2] (Ac-[dK]([PEG12-γGlu-C18 diacid])[Pen]NT[Trp(7-Me)]K(Ac)[Pen][AEF][2Nal][Thp]EN[3Pal][Sar]-NH2; disulfide 2-7), the IC50 in experiment [1] is below 0.0005 µM; in experiment [2], below 0.05 µM.

For `CC(=O)NCCCC[C@@H]1NC(=O)[C@H](CC2CNc3c(C)cccc32)NC(=O)[C@H]([C@@H](C)O)NC(=O)[C@H](CC(N)=O)NC(=O)[C@@H](NC(=O)CCOCCOCC[N+](C)(C)C)C(C)(C)SSC(C)(C)[C@@H](C(=O)N[C@@H](Cc2ccc(OCCN)cc2)C(=O)N[C@@H](Cc2ccc3ccccc3c2)C(=O)NC2(C(=O)N[C@@H](CCCCNC(=O)COCCOCCNC(=O)COCCOCCNC(=O)CC[C@H](NC(=O)CCCCCCCCCCCCCCCCC(=O)O)C(=O)O)C(=O)N[C@@H](CC(N)=O)C(=O)N[C@@H](Cc3cccnc3)C(=O)N(C)CC(N)=O)CCOCC2)NC1=O` (stereo partly drawn) [compound 78, cPEG3aCO-Pen(3)-N-T-7MeW-K(Ac)-Pen(3)-AEF-2Nal-THP-K(PEG2PEG2gEC18OH)-N-3Pya-Sar-CONH2], the IC50 in experiment [1] is below 0.0005 µM; in experiment [2], 0.05 to 0.5 µM.

`CC(=O)N(C)CCCC[C@@H]1NC(=O)[C@H](Cc2c[nH]c3c(C)cccc23)NC(=O)[C@H]([C@@H](C)O)NC(=O)[C@H](CC(=O)N(C)C)NC(=O)[C@@H](NC(=O)CCOCCOCC[N+](C)(C)C)C(C)(C)SSC(C)(C)[C@@H](C(=O)N[C@@H](Cc2ccc(OCCOCCOCC[N+](C)(C)C)cc2)C(=O)N[C@@H](Cc2ccc3ccccc3c2)C(=O)NC2(C(=O)N[C@@H](CCCCN(C)C(C)=O)C(=O)N[C@@H](CC(N)=O)C(=O)N[C@@H](Cc3cccnc3)C(=O)N(C)[C@@H](CCCCNC(=O)CCOCCOCCOCCOCCOCCOCCNC(=O)CC[C@H](NC(=O)CCCCCCCCCCCCCCCCC(=O)O)C(=O)O)C(N)=O)CCOCC2)NC1=O` [compound 88, cPEG3aCO-Pen(3)-N(N(Me)2)-T-7MeW-K(NMeAc)-Pen(3)-APEG3F-2Nal-THP-K(NMeAc)-N-3Pya-NMeK(PEG6gEC18OH)-CONH2] ({Me3N+(CH2)2O(CH2)2O(CH2)2CO}-[Pen]D(NMe2)T[Trp(7-Me)][Lys(Me)](Ac)[Pen]Y(CH2CH2OCH2CH2OCH2CH2NMe3+)[2Nal][Thp][Lys(Me)](Ac)N[3Pal][NMeK]([PEG6-γGlu-C18 diacid])-NH2; disulfide 1-6): the IC50 was below 0.0005 µM in experiment [1] and below 0.05 µM in experiment [2].

On to `CC(=O)NCCCC[C@@H]1NC(=O)[C@H](Cc2c[nH]c3c(C)cccc23)NC(=O)[C@H]([C@@H](C)O)NC(=O)[C@H](CCCCNC(=O)CCC(=O)N[C@H](CC(=O)O)C[N+](C)(C)C)NC(=O)[C@@H](NC(=O)[C@@H](CCCNC(=N)N)NC(C)=O)C(C)(C)SSC(C)(C)[C@@H](C(=O)N[C@@H](Cc2ccc(OCCNC(=O)COCCOCCNC(=O)COCCOCCNC(=O)CC[C@H](NC(=O)CCCCCCCCCCCCCCCCC(=O)O)C(=O)O)cc2)C(=O)N[C@@H](Cc2ccc3ccccc3c2)C(=O)NC2(C(=O)N[C@@H](CCC(=O)O)C(=O)N[C@@H](CC(N)=O)C(=O)N[C@@H](Cc3cccnc3)C(=O)N(C)CC(N)=O)CCOCC2)NC1=O` [compound 10, MeCO-r-Pen(3)-K(d)-T-7MeW-K(Ac)-Pen(3)-AEF(PEG2PEG2gEC18OH)-2Nal-THP-E-N-3Pya-Sar-CONH2] (Ac-[dR][Pen]K([Suc-X2])T[Trp(7-Me)]K(Ac)[Pen][AEF]([AEEA-AEEA-γGlu-C18 diacid])[2Nal][Thp]EN[3Pal][Sar]-NH2; disulfide 2-7), for which the IC50 in experiment [1] was 0.0005 to 0.005 µM; in experiment [2] it was below 0.05 µM.
